For 2 compounds, IC50 and inhibition results are on record in patent US20250122210A1, “SMALL MOLECULE INHIBITORS OF KRAS G12D MUTANT” (DANA-FARBER CANCER INSTITUTE, INC., priority 2021, published 2025).

Molecules are shown by their SMILES.

Type in all cases: cell-based
The subject of one experiment is MIA-PaCa-2 cells. Kind of experiment: Anti-proliferative activity in MIA-PaCa-2 cells (CellTiter-Glo). Conditions: Homo sapiens, 72 h, MIA-PaCa-2 cells (KRAS G12C), three days, read-out: IC50 (cell viability). The procedure: MIA-PaCa-2 cells were treated with KRAS inhibitors at the density of 800 cells/well in 384-well plate for three days. Cell viability was evaluated using CellTiter-Glo® Luminescent Cell Viability Assay.
(In ATP-based viability assays light output follows the ATP content of the culture.)

In the next experiment the test system is AGS cells. Kind of experiment: Anti-proliferative activity in AGS cells (CellTiter-Glo). Conditions: Homo sapiens, 72 h, AGS cells (KRAS G12D), three days, read-out: IC50 (cell viability). The procedure: AGS cells were treated with KRAS inhibitors at the density of 800 cells/well in 384-well plate for three days. Cell viability was evaluated using CelITiter-Glo® Luminescent Cell Viability Assay. […] AGS cells harbor KRAS G12D mutation. The improved antiproliferation effects of the compounds indicate stronger inhibition towards G12D mutation.

Experiment [1] relates to p-ERK in PC-9 cells (KRAS wild-type). Put plainly: Downstream evaluation in PC-9 cells (p-ERK immunoblot). Conditions: Homo sapiens, 8 h and 24 h, read-out: inhibition of the downstream signaling measured by p-ERK. The procedure:
PC-9 cells were treated with Compound 006 (DGY-12-161) in the 6-well plate at indicated concentrations for 8 h and 24 h, respectively. The intensities of the bands were quantified in LICOR Odyssey® CLx Imaging System. PC-9 cells are KRAS wild-type.
Background: A western blot detects proteins with antibodies after separation by electrophoresis.

For experiment [2], the system named is downstream signaling (p-ERK) in PANC-1 cells (KRAS G12D). Put plainly: Downstream evaluation in PANC-1 cells (p-ERK immunoblot). The conditions noted are these: Homo sapiens, 8 h and 24 h, read-out: IC50 of inhibition of downstream signaling. The procedure:
PANC-1 cells were treated with Compound 006 (DGY-12-161) in the 6-well plate at indicated concentrations for 8 h and 24 h, respectively. The intensities of the bands were quantified in LICOR Odyssey® CLx Imaging System. PANC-1 cells harbor KRAS G12D mutation.

For `Oc1cc(-c2c(Cl)cc3c(N4[C@@H]5CC[C@H]4CNC5)nc(OCC45CCCN4CCC5)nc3c2F)c2ccccc2c1` [Compound 001, 4-(4-((1R,5S)-3,8-diazabicyclo[3.2.1]octan-8-yl)-6-chloro-8-fluoro-2-((tetrahydro-1H-pyrrolizin-7a(5H)-yl)methoxy)quinazolin-7-yl)naphthalen-2-ol], the IC50 – broadly, the concentration at which inhibition is half-maximal – in the experiment with MIA-PaCa-2 cells amounted to 2300 nM; with AGS cells it was 600 nM.
As for `CN(C)C1CN(c2nc(N3[C@@H]4CC[C@H]3CNC4)c3cc(Cl)c(-c4cc(O)cc5ccccc45)c(F)c3n2)C1` [Compound 006, 4-(4-((1R,5S)-3,8-diazabicyclo[3.2.1]octan-8-yl)-6-chloro-2-(3-(dimethylamino)azetidin-1-yl)-8-fluoroquinazolin-7-yl)naphthalen-2-ol], in experiment [1], the inhibition (as a rule, the share of the control response that was lost under treatment) at 10 µM is ~50%. Further, the results for the IC50 (in the experiment with MIA-PaCa-2 cells; in experiment [2]; in the experiment with AGS cells) were 2200 nM, < 10000 nM and 1400 nM, respectively.
